According to patent publication US7358259B2, “HCV inhibitors and methods of using them” (Rigel Pharmaceuticals, Inc., priority 2003, dated 2008):

System: HCV replicon in 5-2Luc replicon cells
Assay: HCV Replicon Assay (luciferase)
Format: cell-based
Conditions: Hepatitis C virus; Table 4; assay not given
Method: Actively dividing 5-2Luc replicon cells were seeded at the density of 5000-7500 cells/well in the volume of 90 μl/well into 96 well plate(s). The cells were then incubated at 37° C. and 5% CO2 for 24 hours. The 5-2 cells are replicon cells licensed from Ralf Bartenschlager (Germany) and have a self-replicating RNA molecule in the Huh7 cell; the RNA contains HCV non-structural proteins that make the self-replication possible.
Various concentrations of compounds (in the volume of 10 μl) were added into each well 24 hours after seeding the cells. The cells were incubated for another 24 hours before luciferase assay.
After incubating the 5-2 Luc replicon cells with the compounds for 24 hours, media were aspirated from each well and Bright-Glo ([…]) luciferase assay reagents were added to each well according to the manufacturer's manual. Briefly, the Bright-Glo reagent was diluted with equal volume of PBS and an aliquote (100 μl) was added to each well. After incubating the plate at room temperature for 5 minutes, luciferase counts were taken using a luminometer.

Going from `O=C(NOC1CCCCO1)c1cc2ccc(F)cc2n2c(Cl)nnc12` (stereo not shown) [1-chloro-8-fluoro-N-(tetrahydro-2H-py-ran-2-yloxy)-[1,2,4]tri-azolo[4,3-a]quinoline-4-car-boxamide] to `O=C(NO)c1cc2ccc(F)cc2n2c(Cl)nnc12` [1-chloro-8-fluoro-N-hydroxy-[1,2,4]tri-azolo[4,3-a]quinoline-4-car-boxamide], the IC50 falls from > 10 µM to < 10 µM. The second is the more potent here.

`O=C(NO)c1cc2ccccc2nc1Cl` [2-chloro-N-hydroxyquinoline-3-car-boxamide] and `O=C(NO)c1cnc2ccccc2c1` [N-hydroxyquinoline-3-car-boxamide] cannot be ordered by IC50: > 10 µM for the first, > 10 µM for the second.

`ClC(Cl)c1nnc(-c2cc3nnnn3c3ccccc23)o1` [5-(5-(dichloromethyl)-1,3,4-oxa-diazol-2-yl)tetrazolo[1,5-a]quino-line] and `O=C(NO)c1cc2nnnn2c2ccccc12` [N-hydroxytetrazolo[1,5-a]quino-line-5-carboxamide] cannot be ordered by IC50: > 10 µM for the first, > 10 µM for the second.

`O=C(NOC1CCCCO1)c1cc2c(Cl)cccc2n2nnnc12` (stereo not shown) [6-chloro-N-(tetrahydro-2H-pyran-2-yl-oxy)tetrazolo[1,5-a]quinoline-4-car-boxamide] and `O=C(NOC1CCCCO1)c1cc2cccc(Cl)c2n2nnnc12` (stereo not shown) [9-chloro-N-(tetrahydro-2H-pyran-2-yl-oxy)tetrazolo[1,5-a]quinoline-4-car-boxamide] cannot be ordered by IC50: > 10 µM for the first, > 10 µM for the second.

`O=C(NO)c1cc2c(Cl)cccc2n2nnnc12` [6-chloro-N-hydroxytetrazolo[1,5-a]quino-line-4-carboxamide] and `O=C(NO)c1cc2cccc(Cl)c2n2nnnc12` [9-chloro-N-hydroxytetrazolo[1,5-a]quino-line-4-carboxamide] cannot be ordered by IC50: < 10 µM for the first, < 10 µM for the second.

Going from `COc1cc2cc(C(=O)NOC3CCCCO3)c3nnnn3c2cc1OC` (stereo not shown) [7,8-dimethoxy-N-(tetrahydro-2H-py-ran-2-yloxy)tetrazolo[1,5-a]quino-line-4-carboxamide] to `COc1cc2cc(C(=O)NOC3CCCCO3)c3nnnn3c2cc1Cl` (stereo not shown) [8-chloro-7-methoxy-N-(tetra-hydro-2H-pyran-2-yl-oxy)tetrazolo[1,5-a]quinoline-4-car-boxamide], the IC50 rises from < 10 µM to > 10 µM.

`O=C(NOC1CCCCO1)c1cc2cc(Cl)cc(Cl)c2n2cnnc12` (stereo not shown) [7,9-dichloro-N-(tetrahydro-2H-py-ran-2-yloxy)-[1,2,4]tri-azolo[4,3-a]quinoline-4-car-boxamide] and `O=C(NOC1CCCCO1)c1cc2cc(Cl)cc(Cl)c2n2nnnc12` (stereo not shown) [7,9-dichloro-N-(tetrahydro-2H-py-ran-2-yloxy)tetrazolo[1,5-a]quino-line-4-carboxamide] cannot be ordered by IC50: > 10 µM for the first, > 10 µM for the second.

`O=C(NO)c1cc2cc(Cl)cc(Cl)c2n2nnnc12` [7,9-dichloro-N-hy-droxytetrazolo[1,5-a]quinoline-4-car-boxamide] and `O=C(NO)c1cc2cc(Cl)cc(Cl)c2n2cnnc12` [7,9-dichloro-N-hydroxy-[1,2,4]tri-azolo[4,3-a]quinoline-4-car-boxamide] cannot be ordered by IC50: < 10 µM for the first, < 10 µM for the second.

`O=C(O)c1cc2cc(Cl)cc(Cl)c2n2cnnc12` [7,9-dichloro-[1,2,4]triazolo[4,3-a]quino-line-4-carboxylic acid] and `CCOC(=O)c1cc2cc(Cl)cc(Cl)c2n2cnnc12` [ethyl 7,9-dichloro-[1,2,4]tri-azolo[4,3-a]quinoline-4-car-boxylate] cannot be ordered by IC50: > 10 µM for the first, > 10 µM for the second.

`Cc1cc(C)c2c(c1)cc(C(=O)NOC1CCCCO1)c1nnnn12` (stereo not shown) [7,9-dimethyl-N-(tetrahydro-2H-py-ran-2-yloxy)tetrazolo[1,5-a]quino-line-4-carboxamide] and `Cc1cccc2cc(C(=O)NOC3CCCCO3)c3nnnn3c12` (stereo not shown) [9-methyl-N-(tetrahydro-2H-pyran-2-yl-oxy)tetrazolo[1,5-a]quinoline-4-car-boxamide] cannot be ordered by IC50: > 10 µM for the first, > 10 µM for the second.

`O=C(NOC1CCCCO1)c1cc2cc(Cl)ccc2n2cnnc12` (stereo not shown) [7-chloro-N-(tetrahydro-2H-pyran-2-yl-oxy)-[1,2,4]triazolo[4,3-a]quino-line-4-carboxamide] and `O=C(NOC1CCCCO1)c1cc2cc(Cl)ccc2n2nnnc12` (stereo not shown) [7-chloro-N-(tetrahydro-2H-pyran-2-yl-oxy)tetrazolo[1,5-a]quinoline-4-car-boxamide] cannot be ordered by IC50: > 10 µM for the first, > 10 µM for the second.

Going from `Cc1nnc2c(C(=O)NO)cc3cc(Cl)ccc3n12` [7-chloro-N-hydroxy-1-methyl-[1,2,4]tri-azolo[4,3-a]quinoline-4-car-boxamide] to `CCOC(=O)c1cc2cc(Cl)ccc2n2c(C)nnc12` [ethyl 7-chloro-1-methyl-[1,2,4]tri-azolo[4,3-a]quinoline-4-car-boxylate], the IC50 rises from < 10 µM to > 10 µM.

Going from `O=C(NO)c1cc2cc(Cl)ccc2n2cnnc12` [7-chloro-N-hydroxy-[1,2,4]tri-azolo[4,3-a]quinoline-4-car-boxamide] to `CCOC(=O)c1cc2cc(Cl)ccc2n2cnnc12` [ethyl 7-chloro-[1,2,4]tri-azolo[4,3-a]quinoline-4-car-boxylate], the IC50 rises from < 10 µM to > 10 µM. The first is the more potent here.

`O=C(NO)c1cc2cc(Cl)ccc2n2nnnc12` [7-chloro-N-hydroxytetrazolo[1,5-a]quino-line-4-carboxamide] and `O=C(NO)c1cc2ccc(Cl)cc2n2nnnc12` [8-chloro-N-hydroxytetrazolo[1,5-a]quino-line-4-carboxamide] cannot be ordered by IC50: < 10 µM for the first, < 10 µM for the second.

`O=C(NO)c1cc2cc(F)ccc2n2nnnc12` [7-fluoro-N-hydroxytetrazolo[1,5-a]quino-line-4-carboxamide] and `O=C(NO)c1cc2ccccc2n2nnnc12` [N-hydroxytetrazolo[1,5-a]quino-line-4-carboxamide] cannot be ordered by IC50: < 10 µM for the first, < 10 µM for the second.

`COc1cc2cc(C(=O)NO)c3nnnn3c2cc1Cl` [8-chloro-N-hydroxy-7-meth-oxytetrazolo[1,5-a]quino-line-4-carboxamide] and `COc1cc2cc(C(=O)NO)c3nnnn3c2cc1OC` [N-hydroxy-7,8-di-methoxytetrazolo[1,5-a]quino-line-4-carboxamide] cannot be ordered by IC50: < 10 µM for the first, < 10 µM for the second.

`CN(O)C(=O)c1cc2ccc(Cl)cc2n2nnnc12` [8-chloro-N-hydroxy-N-meth-yltetrazolo[1,5-a]quinoline-4-car-boxamide] and `COc1ccc2cc(C(=O)NO)c3nnnn3c2c1` [N-hydroxy-8-meth-oxytetrazolo[1,5-a]quino-line-4-carboxamide] cannot be ordered by IC50: > 10 µM for the first, > 10 µM for the second.

`O=C(O)c1cc2ccc(F)cc2n2cnnc12` [8-fluoro-[1,2,4]triazolo[4,3-a]quino-line-4-carboxylic acid] and `COC(=O)c1cc2ccc(F)cc2n2cnnc12` [methyl 8-fluoro-[1,2,4]tri-azolo[4,3-a]quinoline-4-car-boxylate] cannot be ordered by IC50: > 10 µM for the first, > 10 µM for the second.

`COc1ccc2cc(C(=O)NOC3CCCCO3)c3nnnn3c2c1` (stereo not shown) [8-methoxy-N-(tetrahydro-2H-py-ran-2-yloxy)tetrazolo[1,5-a]quino-line-4-carboxamide] and `O=C(NOC1CCCCO1)c1cc2ccc(OC(F)(F)F)cc2n2nnnc12` (stereo not shown) [N-(tetrahydro-2H-pyran-2-yloxy)-8-(tri-fluoromethoxy)tetrazolo[1,5-a]quino-line-4-carboxamide] cannot be ordered by IC50: > 10 µM for the first, > 10 µM for the second.

`O=C(NOC1CCCCO1)c1cc2ccccc2n2nnnc12` (stereo not shown) [N-(tetrahydro-2H-pyran-2-yl-oxy)tetrazolo[1,5-a]quinoline-4-car-boxamide] and `O=C(NOC1CCCCO1)c1cc2nnnn2c2ccccc12` (stereo not shown) [N-(tetrahydro-2H-pyran-2-yl-oxy)tetrazolo[1,5-a]quinoline-5-car-boxamide] cannot be ordered by IC50: > 10 µM for the first, > 10 µM for the second.

`Cc1cc(C)c2c(c1)cc(C(=O)NO)c1nnnn12` [N-hydroxy-7,9-di-methyltetrazolo[1,5-a]quino-line-4-carboxamide] and `Cc1cccc2cc(C(=O)NO)c3nnnn3c12` [N-hydroxy-9-methyltetrazolo[1,5-a]quino-line-4-carboxamide] cannot be ordered by IC50: < 10 µM for the first, < 10 µM for the second.

`O=C(NO)c1cc2cc3c(cc2n2nnnc12)OCCO3` [N-hydroxy-8,9-di-hydro[1,4]dioxino[2,3-g]tetra-zolo[1,5-a]quinoline-4-car-boxamide] and `O=C(NO)c1cc2ccc(C(F)(F)F)cc2n2nnnc12` [N-hydroxy-8-(tri-fluoromethyl)tetrazolo[1,5-a]quino-line-4-carboxamide] cannot be ordered by IC50: < 10 µM for the first, < 10 µM for the second.

First: O=C(NO)c1cc2ccc(OC(F)(F)F)cc2n2nnnc12 [N-hydroxy-8-(tri-fluoromethoxy)tetrazolo[1,5-a]quino-line-4-carboxamide]
Second: COC(=O)c1cc2nnnn2c2ccccc12 [methyl tetrazolo[1,5-a]quinoline-5-car-boxylate]
The IC50 of the first is lower: < 10 µM for the first, > 10 µM for the second.
